Assay [1] has as its system py27 (C-MYC) (DNA, i motif) CCTTCCCCACCCTCCCCACCCTCCCCA
Briefly: CD melting. The following applies: 100 mM KCl, potassium phosphate 60 mM; 1× BPES, pH 5.5; 1 μM DNA, 20 μM compound.

For assay [2], the system named is Fpy27 (DNA, i motif) CCTTCCCCACCCTCCCCACCCTCCCCA
Briefly: MST. Conditions: 100 mM KCl, potassium phosphate 60 mM; 1× BPES (1 mM EDTA), pH 5.5, 25 °C.

Assay [3] deals with Fpy39 (DNA, i motif) CAGCCCCGCTCCCGCCCCCTTCCTCCCGCGCCCGCCCCT
In words: MST. The following applies: 100 mM KCl, potassium phosphate 60 mM; 1× BPES (1 mM EDTA), pH 5.5, 25 °C.

Assay [4] has as its system py39 (DNA, i motif) CAGCCCCGCTCCCGCCCCCTTCCTCCCGCGCCCGCCCCT
Briefly: ITC. The following applies: 100 mM KCl, potassium phosphate 60 mM; 1× BPES (1 mM EDTA), pH 5.5, 25 °C; fitted to 1:1 model.

The subject of assay [5] is Fpy27T (F-C-MYC-T) (DNA, i motif) CCTTCCCCACCCTCCCCACCCTCCCCA
Briefly: FRET melting. Conditions: 100 mM KCl, potassium phosphate 60 mM; 1× BPES, pH 5.5; 0.2 μM DNA, 4 μM compound.

Assay [6] concerns FKRAST (DNA, i motif) GCCCGGCCCCCGCTCCTCCCCCGCCGGCCCGGCCCGGCCCCCTCCTTCTCCCCG
In words: FRET melting. The following applies: 100 mM KCl, potassium phosphate 60 mM; 1× BPES, pH 5.5; 0.2 μM DNA, 4 μM compound.

The test system of assay [7] is pu39 (DNA, G4) AGGGGCGGGCGCGGGAGGAAGGGGGCGGGAGCGGGGCTG
Briefly: TO fluorescent intercalator displacement. Conditions: K+ (100 mM KCl); 20 mM Tris-HCl pH 7.4; 1 μM DNA, 1 μM thiazole orange displaced.

The test system of assay [8] is bio-VEGF (DNA, i motif) GACCCCGCCCCCGGCCCGCCCCGG
Briefly: SPR. The following applies: 100 mM KCl; 20 mM MES, pH 5.5, 25 °C; immobilised DNA.

Assay [9] concerns FVEGFT (DNA, i motif) GACCCCGCCCCCGGCCCGCCCCGG
In words: FRET melting. Conditions: 100 mM KCl, potassium phosphate 60 mM; 1× BPES, pH 5.5; 0.2 μM DNA, 4 μM compound.

For assay [10], the system named is bio-py39 (DNA, i motif) CAGCCCCGCTCCCGCCCCCTTCCTCCCGCGCCCGCCCCT
Briefly: SPR. Conditions: 100 mM KCl; 20 mM MES, pH 5.5, 25 °C; immobilised DNA.

For assay [11], the system named is py39 (DNA, i motif) CAGCCCCGCTCCCGCCCCCTTCCTCCCGCGCCCGCCCCT
Briefly: TO fluorescent intercalator displacement. The following applies: K+ (1x BPES: 100 mM KCl, potassium phosphate); 1x BPES pH 5.5; 1 μM DNA, 1 μM thiazole orange displaced.

Assay [12] concerns bio-C-KIT (DNA, i motif) CCCTCCTCCCAGCGCCCTCCCT
In words: SPR. Conditions: 100 mM KCl; 20 mM MES, pH 5.5, 25 °C; immobilised DNA.

Assay [13] concerns bio-py27 (bio-C-MYC) (DNA, i motif) CCTTCCCCACCCTCCCCACCCTCCCCA
Briefly: SPR. The following applies: 100 mM KCl; 20 mM MES, pH 5.5, 25 °C; immobilised DNA.

Assay [14] has as its system py39 (DNA, i motif) CAGCCCCGCTCCCGCCCCCTTCCTCCCGCGCCCGCCCCT
In words: CD melting. The following applies: 100 mM KCl, potassium phosphate 60 mM; 1× BPES, pH 5.5; 1 μM DNA, 20 μM compound.

In assay [15] the test system is KRAS (DNA, i motif) GCCCGGCCCCCGCTCCTCCCCCGCCGGCCCGGCCCGGCCCCCTCCTTCTCCCCG
Briefly: CD melting. The following applies: 100 mM KCl, potassium phosphate 60 mM; 1× BPES, pH 5.5; 1 μM DNA, 20 μM compound.

The test system of assay [16] is Fpy39T (DNA, i motif) CAGCCCCGCTCCCGCCCCCTTCCTCCCGCGCCCGCCCCT
In words: FRET melting. Conditions: 100 mM KCl, potassium phosphate 60 mM; 1× BPES, pH 5.5; 0.2 μM DNA, 4 μM compound.

In assay [17] the test system is hairpin (DNA, hairpin) CGCGCGCGTTTTCGCGCGCG
In words: TO fluorescent intercalator displacement. Conditions: 1 μM DNA, 1 μM thiazole orange displaced.

Assay [18] relates to GC duplex (py39+pu39) (DNA, duplex) CAGCCCCGCTCCCGCCCCCTTCCTCCCGCGCCCGCCCCT/AGGGGCGGGCGCGGGAGGAAGGGGGCGGGAGCGGGGCTG
In words: TO fluorescent intercalator displacement. The following applies: 20 mM NaCl; 20 mM Tris-HCl, pH 7.4; 1 μM DNA, 1 μM thiazole orange displaced.

Assay [19] has as its system bio-hairpin (DNA, hairpin, HEG (non-nucleotide) linker between nucleotides 10 and 11) TATAGCTATATATAGCTATA
Briefly: SPR. Conditions: 100 mM KCl; 20 mM Tris-HCl, pH 7.4, 25 °C; immobilised DNA.

Assay [20] concerns VEGF (DNA, i motif) GACCCCGCCCCCGGCCCGCCCCGG
In words: CD melting. Conditions: 100 mM KCl, potassium phosphate 60 mM; 1× BPES, pH 5.5; 1 μM DNA, 20 μM compound.

The subject of assay [21] is C-KIT (DNA, i motif) CCCTCCTCCCAGCGCCCTCCCT
Briefly: CD melting. Conditions: 100 mM KCl, potassium phosphate 60 mM; 1× BPES, pH 5.5; 1 μM DNA, 20 μM compound.

Assay [22] has as its system py27 (C-MYC) (DNA, i motif) CCTTCCCCACCCTCCCCACCCTCCCCA
In words: ITC. Conditions: 100 mM KCl, potassium phosphate 60 mM; 1× BPES (1 mM EDTA), pH 5.5, 25 °C; fitted to 1:1 model.

The subject of assay [23] is FC-KITT (DNA, i motif) CCCTCCTCCCAGCGCCCTCCCT
Briefly: FRET melting. The following applies: 100 mM KCl, potassium phosphate 60 mM; 1× BPES, pH 5.5; 0.2 μM DNA, 4 μM compound.

Molecules are shown by their SMILES.

As to `Cc1ccc2c(c1)c(=O)c1cc(C(=O)NCCCN3CCOCC3)ccc1n2-c1ccc(C(=O)NCCCN2CCOCC2)cc1`, the ΔTm in assay [1] was 4.26 °C; in [5], 3.50 °C; in assay [6] it was 1.17 °C; in assay [9], -0.64 °C; in assay [14], 9.63 °C; in assay [15] it was 1.03 °C. In addition, the ΔTm in [16] was 9.15 °C; in assay [20] it was 1.34 °C; in [21], 0.20 °C; in assay [23], -0.52 °C. In addition, the KD amounted to 10.95 µM in assay [2]; 4.69 µM in assay [3]; 5.52 µM in assay [4]; 36.4 µM in [8]; 3.56 µM in assay [10]; 34.5 µM in [12]. Further, the KD was 11.95 µM in assay [13], > 50 µM in [19] and 11.1 µM in assay [22]. In assay [7], the relative replacement ratio was 10%. Moreover, the “relative TO displacement ratio” value in [11] was found to be 52%; in [17], 12%; in [18], 6%.

Usually ΔTm stands for the change in melting temperature against a reference sample. As usually defined, the KD is the concentration at which binding is half-saturated.

Source of the values: paper PMC7470982 (2020).
